The values below come from patent US20250115613A1, “DIARYL COMPOUND AS TUBULIN/SRC DUAL TARGET INHIBITOR” (Wuhan Humanwell Innovative Drug Research and Development …, priority 2022, published 2025).

In general, IC50 refers to the concentration needed to halve the response being measured. As usually defined, the AUC(0-t) is exposure summed from dosing to a finite time, without extrapolation to infinity. High values mean high exposure, low ones low exposure. A word on the Cmax: it is the maximum level reached in the sampled fluid or tissue. For orientation: clearance means the rate of elimination divided by the concentration. A high value points to efficient removal. What is called half-life is the time needed for the level to fall by half in the phase considered. A high value points to slow loss. As usually defined, the solubility is the dissolved amount per volume that the medium holds.

Values after ≈ are worked out from the molar mass of the structure shown. Like-named read-outs stand apart in the source and are kept apart here.

The subject of data set [1] is A-431 cells. Description: Inhibition of A-431 cell proliferation. It counts as cell-based. The note with it: Homo sapiens, 96 h, incubated 4 days. The protocol:
(§1) Human cutaneous squamous cell carcinoma cell A-431 (ATCC, CRL-1555) and actinic keratosis patient-derived cell HT 297.T (ATCC, CRL-7782) proliferation assays were used to detect the inhibitory effect of small molecular compounds on cell proliferation.
(§2) A-431 cells and HT 297.T cells were cultured in DMEM medium containing 10% fetal bovine serum and grown at 37° C. in a 5% CO2 incubator. Cells on logarithmic phase were seeded into a 96-well cell culture plate at 1000 cells/well, 100 μL per well, and then cultured overnight at 37° C. in a 5% CO2 incubator. The next day, 100 μL of gradient-diluted 2× test compound solution was added to each well, with DMSO serving as a positive control, and 10 μM staurosporine (Aladdin, S102392) was set as a negative control group. After the addition of the compounds, the culture plate was incubated for another 4 days at 37° C. in a 5% CO2 incubator. After incubation, the Steady-Glo® luciferase assay system (Promega, G9243) was used according to the supplier's instructions to measure the fluorescence signal value on the Envision 2104 Multilabel Reader. The inhibition rate was calculated by the following formula, then the curve was plotted with the Log value of the inhibitor concentration as the X-axis and the inhibition rate as the Y-axis, and the IC50 was calculated using Graphpad 8.0.
(§3) Inhibition %=(positive control group signal−test well signal)/(positive control group signal−negative control group signal)*100

Data set [2] in a line: Pharmacokinetic test in mice. Type of data set: in vivo. The settings on record: mouse, plasma. The protocol: For the pharmacokinetic test in mice, 3 male ICR mice, 20 to 25 g, were used, fasted overnight, and administered by tail vein injection (1 mg/kg or 5 mg/kg). Blood was collected before the administration, and at 15 min, 30 min, 1 hour, 2 hours, 4 hours, 8 hours, and 24 hours after the administration. Another 3 mice were taken and administered by oral gavage (5 mg/kg), and blood was collected before the administration, and at 15 min, 30 min, 1 hour, 2 hours, 4 hours, 8 hours, and 24 hours after the administration. Blood samples were centrifuged at 6800 g at 2 to 8° C. for 6 min, and plasma was collected and stored at −80° C. The plasma at each time point was taken and added with an acetonitrile solution containing internal standard in 3 to 5 times the amount. The mixture was vortexed and mixed for 1 min, and centrifuged at 13,000 rpm at 4° C. for 10 min. The supernatant was collected, added with water in 3 times the amount, and mixed. An appropriate amount of the mixture was taken for LC-MS/MS analysis. The main pharmacokinetic parameters were analyzed using WinNonlin 7.0 software with non-compartmental model.

The subject of data set [3] is HT 297.T cells. Description: Inhibition of HT 297.T cell proliferation. Type of data set: cell-based. The note with it: Homo sapiens, 96 h, incubated 4 days. The protocol:
as §1, §2, §3

A short description of data set [4]: Human liver microsome stability test. It counts as in vitro ADME. The note with it: human liver microsomes (Corning), NADPH, 37° C. The procedure:
The human liver microsome stability test was performed by incubating the compound and human liver microsomes in vitro. First, the compound to be tested was prepared as a 10 mM stock solution in DMSO solvent, and then the compound was diluted to 0.5 mM with acetonitrile. Human liver microsomes (Corning) were diluted with PBS into a microsome/buffer solution, and the solution was used to dilute 0.5 mM compound into a working solution, in which the concentration of the compound was 1.5 μM, and the concentration of human liver microsomes was 0.75 mg/mL. A deep-well plate was taken, 30 μL of the working solution was added per well, and then 15 μL of pre-heated 6 mM NADPH solution was added thereto to initiate a reaction, and the reaction was incubated at 37° C. At 0 min, 5 min, 15 min, 30 min, and 45 min of the incubation, 135 μL of acetonitrile was added to the corresponding wells to terminate the reaction. After the reaction was terminated with acetonitrile at the last time point of 45 min, the deep-well plate was vortexed and shaken for 10 min (600 rpm), and then centrifuged for 15 min. After centrifugation, the supernatant was collected, and added with purified water in a ratio of 1:1 to perform LC-MS/MS detection. A ratio of a peak area of compound to a peak area of internal standard at each time point was obtained, and the peak area ratios of the compound at 5 min, 15 min, 30 min, and 45 min were compared with the peak area ratio at 0 min to calculate the remaining percentage of the compound at each time point. T1/2 was calculated by using Graphpad 5 software.
For orientation: Microsomes from liver hold many membrane-bound enzymes, among them those of drug oxidation.

Data set [5] in a line: Thermodynamic solubility test. Type of data set: physicochemical. The settings on record: thermodynamic from solid. The protocol:
Phosphate buffer saline (PBS) with a pH of 7.4, FeSSIF solution with a pH of 6.5, and FaSSGF solution with a pH of 1.6 were prepared. The compound was accurately weighed and added to prepared phosphate buffer saline with a pH of 7.4, FeSSIF solution with a pH of 6.5, and FaSSGF solution with a pH of 1.6 to prepare into a solution with a concentration of 4 mg/mL. The solution was shaken at a speed of 1000 rpm for 1 hour, and then incubated overnight at room temperature. The incubated solution was centrifuged at 12,000 rpm for 10 minutes to remove undissolved particles, and the supernatant was transferred to a new centrifuge tube. After the supernatant was appropriately diluted, an acetonitrile solution containing internal standard was added, and a standard curve prepared with the same matrix was used for quantification.

Data set [6] relates to tubulin monomer. Description: Inhibition test of tubulin monomer polymerization (Tubulin polymerization assay kit). Type of data set: biochemical. The settings on record: maximum fluorescence signal of polymerization curve; 5 μL of 12.5 μM compound solution; 37° C.; higher value = lower inhibitory efficiency. The procedure: Tubulin polymerization assay kit (cytoskeleton, Cat. #BK011P) was used to conduct the compound inhibition test of tubulin monomer polymerization.
Before the test, the 96-well plate (Corning Costar, Cat. #3686) supplied with the kit was first placed in a microplate reader (MD, SpectraMax M5) and heated to 37° C., maintained for 10 minutes. The 96-well plate was then removed, and 5 μL of 12.5 μM compound solution or blank solution was added thereto. The 96-well plate was then placed back into the microplate reader and incubated at 37° C. for 1 minute to heat the compound solution to 37° C. The 96-well plate was removed and 50 μL of reaction mixture prepared according to the supplier's instructions was quickly added to each well, completing the sample addition within 1 minute to avoid the formation of bubbles. The 96-well plate was then immediately placed back into the microplate reader, shaken for 5 seconds, and using the Kinetic mode, continuous detection was carried out at 37° C. for 30 to 60 minutes under the conditions of excitation light at 360 nm and emission light at 420 nm, with detection every 30 seconds. Taking the detection time as the X-axis and the fluorescence signal value as the Y-axis, the tubulin monomer polymerization curve was obtained. As shown in FIG. 1 and Table 1, the larger the Vmax value and the higher the maximum fluorescence signal value of the polymerization curve, the lower the inhibitory efficiency of the compound.

Setting [7] is: male, ICR, mice, oral gavage 5 mg/kg.
Setting [8] is: male ICR mice, intravenous injection 5 mg/kg.
Setting [9] is: FeSSIF solution, FeSSIF pH 6.5, incubated overnight at room temperature, read-out: Solubility FeSSIF (pH 6.5).
The mark [10] stands for this setting: phosphate buffer saline (PBS), aqueous buffer, PBS pH 7.4, incubated overnight at room temperature, read-out: Solubility PBS (pH 7.4).
[11] abbreviates: male ICR mice, intravenous injection 1 mg/kg.

On to `Cc1cc(OCCN2C[C@H]3COC[C@H]3C2)ccc1-c1ccc(CC(=O)NCc2ccccc2F)nc1` [Compound I-33, N-(2-fluorobenzyl)-2-(5-(2-methyl-4-(2-((3aR,6aS)-tetrahydro-1H-furo[3,4-c]pyrrol-5(3H)-yl)ethoxy)phenyl)pyridin-2-yl)acetamide], for which, in data set [1], the half-inhibitory concentration (IC50) was determined as 49.4 nM.
Still for that read-out and setting: in the case of `Cc1cc(OCCN2C[C@H]3COC[C@H]3C2)cc(C)c1-c1ccc(CC(=O)NCc2ccccc2)nc1` [Compound I-29, N-benzyl-2-(5-(2,6-dimethyl-4-(2-((3aR,6aS)-tetrahydro-1H-furo[3,4-c]pyrrol-5(3H)-yl)ethoxy)phenyl)pyridin-2-yl)acetamide] it was 45.1 nM.
On to `C[C@H]1COCCN1CCOc1ccc(-c2ccc(CC(=O)NCc3ccccc3)nc2)c(F)c1` [Compound I-24A, (S)—N-benzyl-2-(5-(2-fluoro-4-(2-(3-methylmorpholino)ethoxy)phenyl)pyridin-2-yl)acetamide], for which the exposure AUC(0-t) in data set [2] (setting [7]) is 1090 ng·h/mL; in data set [2] (setting [8]), 2520 ng·h/mL. For the same compound, the Cmax in data set [2] (setting [7]) came to 1190 ng/mL. For the same compound, the clearance in data set [2] (setting [8]) was 33.2 mL/min/kg. Moreover, the figures for the IC50 in data set [1] and in data set [3] were 6.74 nM and 8.13 nM, respectively.
For the compound `O=C(Cc1ccc(-c2ccc(OCCN3CCS(=O)(=O)CC3)cc2)cn1)NCc1ccccc1` [Compound I-3, N-benzyl-2-(5-(4-(2-(1,1-dioxidothiomorpholino)ethoxy)phenyl)pyridin-2-yl)acetamide], the IC50 in data set [1] came out at 14.3 nM.
The same measure, in the same setting: in the case of `C[C@@H]1COCCN1CCOc1ccc(-c2ccc(CC(=O)NCc3ccccc3F)nc2)c(F)c1` [Compound I-31, (R)-2-(5-(2-fluoro-4-(2-(3-methylmorpholino)ethoxy)phenyl)pyridin-2-yl)-N-(2-fluorobenzyl)acetamide] it was 10.9 nM.
Consider `O=C(Cc1ccc(-c2ccc(OCCN3C[C@H]4COC[C@H]4C3)cc2Cl)cn1)NCc1ccccc1` [Compound I-30, N-benzyl-2-(5-(2-chloro-4-(2-((3aR,6aS)-tetrahydro-1H-furo[3,4-c]pyrrol-5(3H)-yl)ethoxy)phenyl)pyridin-2-yl)acetamide], for which the half-life at 1 μM in data set [4] came out at 10.7 min. In addition, in data set [2] (setting [7]), the AUC(0-t) stood at 508 ng·h/mL and the peak level (Cmax) was 364 ng/mL. In data set [2] (setting [8]), this compound had an AUC(0-t) of 852 ng·h/mL and a clearance of 97.2 mL/min/kg. The compound also came in with an IC50 in data set [1] of 9.12 nM.
Take `O=C(Cc1ccc(-c2ccc(OCCNC3CN(C(=O)CC4CC4)C3)cc2)cn1)NCc1ccccc1` [Compound I-26, N-benzyl-2-(5-(4-(2-((1-(2-cyclopropylacetyl)azetidin-3-yl)amino)ethoxy)phenyl)pyridin-2-yl)acetamide]: the solubility in data set [5] (setting [9]) came to 480 µg/mL (≈ 962 µM); in data set [5] (setting [10]), 22.4 µg/mL (≈ 45 µM). Further, the half-life at 1 μM in data set [4] amounted to 42.8 min. This compound also displayed an IC50 in data set [1] of 13.7 nM. The compound further had a Maximum signal value in data set [6] of 408.
In data set [2] (setting [8]), `Cc1cc(OCCN2CC3(COC3)C2)ccc1-c1ccc(CC(=O)NCc2ccccc2)nc1` [Compound I-5, 2-(5-(4-(2-(2-oxa-6-azaspiro[3.3]heptan-6-yl)ethoxy)-2-methylphenyl)pyridin-2-yl)-N-benzylacetamide] had an AUC(0-t) of 2630 ng·h/mL and a clearance of 32.7 mL/min/kg. Also, the IC50 in data set [1] was determined as 16.3 nM.
In data set [2] (setting [11]), `O=C(Cc1ccc(-c2ccc(OCCN3C[C@H]4COC[C@H]4C3)cc2F)cn1)NCc1ccccc1` [Compound I-1, N-benzyl-2-(5-(2-fluoro-4-(2-((3aR,6aS)-tetrahydro-1H-furo[3,4-c]pyrrol-5(3H)-yl)ethoxy)phenyl)pyridin-2-yl)acetamide] had an AUC(0-t) of 299 ng·h/mL and a clearance of 47.7 mL/min/kg. This compound returned an IC50 in data set [1] of 11.6 nM.
Turning to `N#Cc1cc(OCCN2CCOCC2)ccc1-c1ccc(CC(=O)NCc2ccccc2)nc1` [Compound I-27, N-benzyl-2-(5-(2-cyano-4-(2-morpholinoethoxy)phenyl)pyridin-2-yl)acetamide], the solubility in data set [5] (setting [9]) is 833 µg/mL (≈ 1830 µM); in data set [5] (setting [10]), 85.7 µg/mL (≈ 188 µM). In addition, the IC50 in data set [1] turned out to be 3.1 nM. Also, in data set [6], the Maximum signal value is given as 0.
In data set [1], `O=C(Cc1ccc(-c2ccc(OCCN3CC4(C3)CS(=O)(=O)C4)cc2)cn1)NCc1ccccc1` [Compound I-18, N-benzyl-2-(5-(4-(2-(2,2-dioxido-2-thia-6-azaspiro[3.3]heptan-6-yl)ethoxy)phenyl)pyridin-2-yl)acetamide] showed a 50% inhibitory concentration (IC50) of 22.3 nM.
Take `O=C(Cc1ccc(-c2ccc(OCCN3CC4(COC4)C3)cc2F)cn1)NCc1ccccc1` [Compound I-4, 2-(5-(4-(2-(2-oxa-6-azaspiro[3.3]heptan-6-yl)ethoxy)-2-fluorophenyl)pyridin-2-yl)-N-benzylacetamide]: the half-life at 1 μM in data set [4] came to 47.5 min. In addition, the IC50 was determined as 8.67 nM in data set [1] and 21.9 nM in data set [3].
Regarding `O=C(Cc1ccc(-c2ccc(OCCN3CCOCC3)cc2)cn1)NCc1ccccc1` [Control compound I, Tirbanibulin, reference compound], in data set [2] (setting [8]), the area under the curve AUC(0-t) was determined as 5250 ng·h/mL and the clearance was 15.8 mL/min/kg.
In data set [1], `O=C(Cc1ccc(-c2ccc(OCCN3C[C@H]4COC[C@H]4C3)cc2Cl)cn1)NCc1ccccc1F` [Compound I-34, 2-(5-(2-chloro-4-(2-((3aR,6aS)-tetrahydro-1H-furo[3,4-c]pyrrol-5(3H)-yl)ethoxy)phenyl)pyridin-2-yl)-N-(2-fluorobenzyl)acetamide] yielded an IC50 of 14.8 nM.
`C[C@H]1COCCN1CCOc1ccc(-c2ccc(CC(=O)NCc3ccccc3F)nc2)c(F)c1` [Compound I-32, (S)-2-(5-(2-fluoro-4-(2-(3-methylmorpholino)ethoxy)phenyl)pyridin-2-yl)-N-(2-fluorobenzyl)acetamide] gave an IC50 in data set [1] of 9.22 nM.
